Measured values as given in US12655116B2, “Substituted isophthalic acid diamides” (Bayer Aktiengesellschaft, priority 2020, dated 2026).

How the values were obtained:
ABUTH [1] = assay: Pre-emergence herbicidal action against ABUTH; format: in vivo, Abutilon theophrasti
Summary of the method: (§1)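 Seeds sown in sandy loam, soil-covered; compound sprayed on soil surface pre-emergence. Application: WP/EC, 600–800 l/ha, 0.2% wetting agent. Readout: visual % damage at 3 weeks.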

AMARE [2] = assay: Pre-emergence herbicidal action against AMARE; format: in vivo, Amaranthus retroflexus
Summary of the method: as §1

ECHCG [3] = assay: Pre-emergence herbicidal action against ECHCG; format: in vivo, Echinochloa crus-galli
Summary of the method: as §1

MATIN [4] = assay: Pre-emergence herbicidal action against MATIN; format: in vivo, Matricaria inodora
Summary of the method: as §1

PHBPU [5] = assay: Pre-emergence herbicidal action against PHBPU; format: in vivo, Pharbitis purpurea; conditions: dosage 80 g/ha
Summary of the method: as §1

POLCO = assay: Pre-emergence herbicidal action against POLCO; format: in vivo, Polygonum convolvulus
Summary of the method: as §1

SETVI [6] = assay: Pre-emergence herbicidal action against SETVI; format: in vivo, Setaria viridis
Summary of the method: as §1

VERPE [7] = assay: Pre-emergence herbicidal action against VERPE; format: in vivo, Veronica persica; conditions: dosage 80 g/ha
Summary of the method: as §1

VIOTR [8] = assay: Pre-emergence herbicidal action against VIOTR; format: in vivo, Viola tricolor
Summary of the method: as §1

DIGSA [9] = assay: Pre-emergence herbicidal action against DIGSA; format: in vivo, Digitaria sanguinalis
Summary of the method: as §1

ABUTH [10] = assay: Post-emergence herbicidal action against ABUTH; format: in vivo, Abutilon theophrasti; conditions: visual assessment about 3 weeks after treatment vs untreated controls
Summary of the method: (§2)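 Percent herbicidal action is rated by eye about 3 weeks after treatment against untreated controls, where 100% means dead plants and 0% means like controls. Plants in sandy loam are sprayed on green parts at the one-leaf stage with aqueous WP or EC preparations at 600 to 800 l/ha plus 0.2% wetting agent.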

AMARE [11] = assay: Post-emergence herbicidal action against AMARE; format: in vivo, Amaranthus retroflexus; conditions: 20 g/ha, visual assessment about 3 weeks after treatment, 100% = plants have died, 0% = like control plants
Summary of the method: as §2

ECHCG [12] = assay: Post-emergence herbicidal action against ECHCG; format: in vivo, Echinochloa crus-galli; conditions: dosage 20 g/ha
Summary of the method: as §2

MATIN [13] = assay: Post-emergence herbicidal action against MATIN; format: in vivo, Matricaria inodora
Summary of the method: as §2

PHBPU [14] = assay: Post-emergence herbicidal action against PHBPU; format: in vivo, Pharbitis purpurea
Summary of the method: as §2

SETVI [15] = assay: Post-emergence herbicidal action against SETVI; format: in vivo, Setaria viridis; conditions: dosage 20 g/ha
Summary of the method: as §2

VERPE [16] = assay: Post-emergence herbicidal action against VERPE; format: in vivo, Veronica persica; conditions: 20 g/ha
Summary of the method: as §2

VIOTR [17] = assay: Post-emergence herbicidal action against VIOTR; format: in vivo, Viola tricolor; conditions: Viola tricolor, 504 h
Summary of the method: as §2

DIGSA [18] = assay: Post-emergence herbicidal action against DIGSA; format: in vivo, Digitaria sanguinalis
Summary of the method: as §2

ALOMY [19] = assay: Pre-emergence herbicidal action against ALOMY; format: in vivo, Alopecurus myosuroides; conditions: 80 g/ha, pre-emergence, scored visually after 3 weeks vs untreated controls (100% = plants have died, 0% = like control plants)
Summary of the method: as §1

AVEFA = assay: Pre-emergence herbicidal action against AVEFA; format: in vivo, Avena fatua; conditions: 80 g/ha, pre-emergence
Summary of the method: as §1

ALOMY [20] = assay: Post-emergence herbicidal action against ALOMY; format: in vivo, Alopecurus myosuroides; conditions: dosage 20 g/ha, visual assessment about 3 weeks after treatment vs untreated controls
Summary of the method: as §2

[21] = Tripleurospermum inodorum, 504 h, dosage 20 g/ha
[22] = 80 g/ha, scored visually after 3 weeks vs untreated controls (100% = plants have died, 0% = like control plants)
[23] = 20 g/ha, scored visually after 3 weeks vs untreated controls, 100% = plants have died, 0% = like control plants

CCNC(=O)c1c(C(F)F)ccc(C(=O)Nc2nnnn2C)c1C1CC1 [Example 1-305]
pest or weed control at 80 g/ha (ABUTH [1]; Abutilon theophrasti, 504 h, 80 g/ha, scored visually after 3 weeks vs untreated controls (100% = plants have died, 0% = like control plants)): 100% | pest or weed control at 20 g/ha (ABUTH [1]; Abutilon theophrasti, 504 h, dosage 20 g/ha, scored visually after 3 weeks vs untreated controls, 100% = plants have died, 0% = like control plants, read-out: Pre-emergence action against ABUTH (herbicidal activity in percent)): 100% | pest or weed control at 20 g/ha (AMARE [2]; Amaranthus retroflexus, 504 h, 20 g/ha, scored visually after 3 weeks vs untreated controls, 100% = plants have died, 0% = like control plants): 100% | pest or weed control at 80 g/ha (AMARE [2]; Amaranthus retroflexus, 504 h, 80 g/ha, scored visually after 3 weeks vs untreated controls, 100% = plants have died, 0% = like control plants): 100% | pest or weed control at 20 g/ha (ECHCG [3]; Echinochloa crus-galli, 504 h, 20 g/ha): 80% | pest or weed control at 80 g/ha (ECHCG [3]; Echinochloa crus-galli, 504 h, 80 g/ha): 100% | pest or weed control at 20 g/ha (MATIN [4]; [21]): 100% | pest or weed control at 80 g/ha (MATIN [4]; Tripleurospermum inodorum, 504 h, dosage 80 g/ha): 100% | pest or weed control at 80 g/ha (PHBPU [5]; Ipomoea purpurea, 504 h): 90% | pest or weed control at 80 g/ha (POLCO; Fallopia convolvulus, 504 h, dosage 80 g/ha): 80% | pest or weed control at 20 g/ha (SETVI [6]; Setaria viridis, 504 h, dosage 20 g/ha): 80% | pest or weed control at 80 g/ha (SETVI [6]; Setaria viridis, 504 h, dosage 80 g/ha): 100% | pest or weed control at 80 g/ha (VERPE [7]; Veronica persica, 504 h): 100% | pest or weed control at 20 g/ha (VIOTR [8]; Viola tricolor, 504 h, dosage 20 g/ha): 100% | pest or weed control at 80 g/ha (VIOTR [8]; Viola tricolor, 504 h, dosage 80 g/ha): 100% | pest or weed control at 20 g/ha (DIGSA [9]; Digitaria sanguinalis, 504 h, dosage 20 g/ha): 100% | pest or weed control at 80 g/ha (DIGSA [9]; Digitaria sanguinalis, 504 h, dosage 80 g/ha): 100% | pest or weed control at 5 g/ha (ABUTH [10]; Abutilon theophrasti, 504 h, dosage 5 g/ha): 90% | pest or weed control at 20 g/ha (ABUTH [10]; Abutilon theophrasti, 504 h, dosage 20 g/ha): 90% | pest or weed control at 20 g/ha (AMARE [11]; Amaranthus retroflexus, 504 h): 90% | pest or weed control at 20 g/ha (ECHCG [12]; Echinochloa crus-galli, 504 h): 90% | pest or weed control at 5 g/ha (MATIN [13]; Tripleurospermum inodorum, 504 h, dosage 5 g/ha): 90% | pest or weed control at 20 g/ha (MATIN [13]; [21]): 90% | pest or weed control at 20 g/ha (PHBPU [14]; Ipomoea purpurea, 504 h, dosage 20 g/ha): 90% | pest or weed control at 20 g/ha (SETVI [15]; Setaria viridis, 504 h): 90% | pest or weed control at 20 g/ha (VERPE [16]; Veronica persica, 504 h): 80% | pest or weed control at 5 g/ha (VIOTR [17]; 5 g/ha): 90% | pest or weed control at 20 g/ha (VIOTR [17]; 20 g/ha): 90% | pest or weed control at 20 g/ha (DIGSA [18]; Digitaria sanguinalis, 504 h, 20 g/ha): 80%

CCn1nnnc1NC(=O)c1ccc(C(F)F)c(C(=O)NCC(F)F)c1C [Example 2-49]
Pre-emergence action against ABUTH (herbicidal activity) (ABUTH [1]; [22]): 100% | Pre-emergence action against ABUTH (herbicidal activity in percent) (ABUTH [1]; dosage 20 g/ha, scored visually after 3 weeks vs untreated controls, 100% = plants have died, 0% = like control plants): 100% | Pre-emergence action against ALOMY (herbicidal activity) (ALOMY [19]): 90% | Pre-emergence action against AMARE in % (AMARE [2]; [23]): 100% | Pre-emergence action against AMARE in % (AMARE [2]; [22]): 100% | Pre-emergence action against AVEFA in % (AVEFA): 80% | Pre-emergence action against ECHCG in % (ECHCG [3]; 80 g/ha): 90% | Pre-emergence action against MATIN in % (MATIN [4]; dosage 20 g/ha): 100% | Pre-emergence action against MATIN in % (MATIN [4]; dosage 80 g/ha): 100% | Pre-emergence action against PHBPU in % (PHBPU [5]): 80% | Pre-emergence action against POLCO in % (POLCO; dosage 80 g/ha): 90% | Pre-emergence action against SETVI in % (SETVI [6]; dosage 80 g/ha): 100% | Pre-emergence action against VERPE in % (VERPE [7]): 100% | Pre-emergence action against VIOTR in % (VIOTR [8]; dosage 20 g/ha): 90% | Pre-emergence action against VIOTR in % (VIOTR [8]; dosage 80 g/ha): 100% | Pre-emergence action against DIGSA in % (DIGSA [9]; dosage 20 g/ha): 100% | Pre-emergence action against DIGSA in % (DIGSA [9]; dosage 80 g/ha): 100% | Post-emergence action against ABUTH in % (ABUTH [10]; dosage 5 g/ha): 90% | Post-emergence action against ABUTH in % (ABUTH [10]; dosage 20 g/ha): 90% | Post-emergence action against ALOMY in % (ALOMY [20]): 80% | Post-emergence action at 20 g/ha against AMARE in % (AMARE [11]): 100% | Post-emergence action against ECHCG in % (ECHCG [12]): 90% | Post-emergence action against MATIN in % (MATIN [13]; dosage 5 g/ha): 80% | Post-emergence action against MATIN in % (MATIN [13]; dosage 20 g/ha): 80% | Post-emergence action against PHBPU in % (PHBPU [14]; dosage 5 g/ha): 80% | Post-emergence action against PHBPU in % (PHBPU [14]; dosage 20 g/ha): 90% | Post-emergence action against SETVI in % (SETVI [15]): 90% | Post-emergence action against DIGSA in % (DIGSA [18]; 5 g/ha): 90% | Post-emergence action against DIGSA (DIGSA [18]; 20 g/ha): 90%

CCn1nnnc1NC(=O)c1ccc(C(F)(F)F)c(C(=O)NC2CCC2)c1Cl [Example 2-146]
Pre-emergence action against ABUTH (herbicidal activity) (ABUTH [1]; [22]): 90% | Pre-emergence action against ALOMY (herbicidal activity) (ALOMY [19]): 80% | Pre-emergence action against AMARE in % (AMARE [2]; [23]): 100% | Pre-emergence action against AMARE in % (AMARE [2]; [22]): 100% | Pre-emergence action against MATIN in % (MATIN [4]; dosage 20 g/ha): 100% | Pre-emergence action against MATIN in % (MATIN [4]; dosage 80 g/ha): 100% | Pre-emergence action against PHBPU in % (PHBPU [5]): 90% | Pre-emergence action against POLCO in % (POLCO; dosage 20 g/ha): 80% | Pre-emergence action against POLCO in % (POLCO; dosage 80 g/ha): 80% | Pre-emergence action against SETVI in % (SETVI [6]; dosage 80 g/ha): 100% | Pre-emergence action against VERPE in % (VERPE [7]): 80% | Pre-emergence action against VIOTR in % (VIOTR [8]; dosage 20 g/ha): 100% | Pre-emergence action against VIOTR in % (VIOTR [8]; dosage 80 g/ha): 100% | Pre-emergence action against DIGSA in % (DIGSA [9]; dosage 80 g/ha): 100% | Post-emergence action against ABUTH in % (ABUTH [10]; dosage 20 g/ha): 80% | Post-emergence action at 20 g/ha against AMARE in % (AMARE [11]): 80% | Post-emergence action against MATIN in % (MATIN [13]; dosage 5 g/ha): 80% | Post-emergence action against MATIN in % (MATIN [13]; dosage 20 g/ha): 90% | Post-emergence action against PHBPU in % (PHBPU [14]; dosage 5 g/ha): 80% | Post-emergence action against PHBPU in % (PHBPU [14]; dosage 20 g/ha): 90% | Post-emergence action against VERPE in % (VERPE [16]): 80%
